Assay results reported in article PMC3388095, “Fluorophore Labeled Kinase Detects Ligands That Bind within the MAPK Insert of p38α Kinase” (PLoS ONE, 2012).

Experiments:
Experiment in all cases: Kinase selectivity profile, 33P-ATP filter-binding assay
Type in all cases: biochemical
[1] = biological target: Aurora A (Homo sapiens, UniProt O14965)
Protocol: (§1) Figure 5 Kinase selectivity profile of 1b. Compound 1b was profiled against a selected panel of 95 different kinases at a concentration of 10 µM employing a radioactive (^33P-ATP) filter-binding assay (National Centre for Protein Kinase Profiling, Dundee). The numbers represent the remaining kinase activity in %. […] TEXT PRINTED IN THE PICTURE: no label printed: Aurora B: 53; MNK2: 67; MINK1: 69; HER4: 71; MKK1: 75; PKBβ: 75; PHK: 76; PIM2: 76; PIM3: 77; CHK2: 78; PKD1: 79; TBK1: 79; PAK4: 80; Lck: 80; GSK3β: 80; IGF-1R: 81; p38δ MAPK: 81; PIM1: 82; SRPK1: 83; SmMLCK: 83; MAPKAP-K3: 84; EPH A2: 85; MELK: 85; CK2: 85; CK1: 86; CAMK1: 86; PLK1: 87; MST2: 87; IR-HIS: 87; BTK: 87; HIPK1: 87; p38α MAPK: 88; DYRK2: 88; JNK3: 88; PAK5: 88; IKKε: 89; p38β MAPK: 89; NUAK1: 90; PAK2: 90; MNK1: 91; ERK8: 91; GCK: 91; PRAK: 91; MLK1: 92; SGK1: 92; PAK6: 92; TTK: 92; BRSK2: 92; MARK4: 93; CHK1: 93; RIPK2: 94; CDK2-Cyclin A: 94; JNK1: 94; AMPK: 94; VEG-FR: 95; DYRK1A: 95; CAMKKβ: 95; PKCα: 96; S6K1: 96; MSK1: 96; PKCz: 96; YES1: 96; RSK1: 97; IRAK4: 97; DYRK3: 97; IKKβ: 97; ERK2: 98; MLK3: 98; RSK2: 98; LKB1: 98; MAPKAP-K2: 98; ERK1: 99; FGF-R1: 99; SYK: 99; MST4: 99; MARK3: 99; MARK2: 100; PDK1: 100; JNK2: 101; HIPK2: 101; BRSK1: 102; EF2K: 102; PRK2: 103; Aurora A: 104; IRR: 104; CSK: 104; PKA: 104; NEK6: 105; p38γ MAPK: 105; Src: 107; PKBα: 109; ROCK 2: 109; EPH-B3: 112; HIPK3: 115; NEK2α: 119 DOUBTS OF THE COPYIST ABOUT THIS PICTURE: The picture prints no compound label and no measure or unit for the numbers; only the colour scale 'Inhibition weak/strong' is printed. / PKCz: the last letter may be z or ζ / NEK2α: the last letter may be a or α / IKKε: the last letter may be ε or e

[2] = biological target: CAMKKβ (Homo sapiens, UniProt Q96RR4)
CAMKKβ, sequence (Q96RR4 whole entry): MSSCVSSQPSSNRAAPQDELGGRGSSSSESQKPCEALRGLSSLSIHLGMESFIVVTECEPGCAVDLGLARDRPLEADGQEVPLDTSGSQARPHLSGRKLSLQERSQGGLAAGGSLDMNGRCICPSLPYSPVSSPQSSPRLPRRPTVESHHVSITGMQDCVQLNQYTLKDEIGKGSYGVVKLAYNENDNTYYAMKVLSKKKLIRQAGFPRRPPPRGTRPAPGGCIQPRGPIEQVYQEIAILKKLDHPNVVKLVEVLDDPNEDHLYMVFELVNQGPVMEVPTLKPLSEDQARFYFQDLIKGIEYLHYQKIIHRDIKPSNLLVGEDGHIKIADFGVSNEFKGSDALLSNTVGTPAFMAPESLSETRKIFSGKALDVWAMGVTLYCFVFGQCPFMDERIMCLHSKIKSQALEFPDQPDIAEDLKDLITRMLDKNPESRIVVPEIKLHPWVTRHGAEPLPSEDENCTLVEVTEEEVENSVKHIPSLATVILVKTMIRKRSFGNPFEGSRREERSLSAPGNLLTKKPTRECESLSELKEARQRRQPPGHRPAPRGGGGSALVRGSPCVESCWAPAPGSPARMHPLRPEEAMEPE
Protocol: as §1

[3] = biological target: CHK2 (Homo sapiens, UniProt O96017)
Protocol: as §1

[4] = biological target: CK1 (Homo sapiens, UniProt P48730)
Protocol: as §1

[5] = biological target: DYRK3 (Homo sapiens, UniProt O43781)
Protocol: as §1

[6] = biological target: HER4 (Homo sapiens, UniProt Q15303)
Protocol: as §1

[7] = biological target: HIPK1 (Homo sapiens, UniProt Q86Z02)
HIPK1, sequence (Q86Z02 whole entry): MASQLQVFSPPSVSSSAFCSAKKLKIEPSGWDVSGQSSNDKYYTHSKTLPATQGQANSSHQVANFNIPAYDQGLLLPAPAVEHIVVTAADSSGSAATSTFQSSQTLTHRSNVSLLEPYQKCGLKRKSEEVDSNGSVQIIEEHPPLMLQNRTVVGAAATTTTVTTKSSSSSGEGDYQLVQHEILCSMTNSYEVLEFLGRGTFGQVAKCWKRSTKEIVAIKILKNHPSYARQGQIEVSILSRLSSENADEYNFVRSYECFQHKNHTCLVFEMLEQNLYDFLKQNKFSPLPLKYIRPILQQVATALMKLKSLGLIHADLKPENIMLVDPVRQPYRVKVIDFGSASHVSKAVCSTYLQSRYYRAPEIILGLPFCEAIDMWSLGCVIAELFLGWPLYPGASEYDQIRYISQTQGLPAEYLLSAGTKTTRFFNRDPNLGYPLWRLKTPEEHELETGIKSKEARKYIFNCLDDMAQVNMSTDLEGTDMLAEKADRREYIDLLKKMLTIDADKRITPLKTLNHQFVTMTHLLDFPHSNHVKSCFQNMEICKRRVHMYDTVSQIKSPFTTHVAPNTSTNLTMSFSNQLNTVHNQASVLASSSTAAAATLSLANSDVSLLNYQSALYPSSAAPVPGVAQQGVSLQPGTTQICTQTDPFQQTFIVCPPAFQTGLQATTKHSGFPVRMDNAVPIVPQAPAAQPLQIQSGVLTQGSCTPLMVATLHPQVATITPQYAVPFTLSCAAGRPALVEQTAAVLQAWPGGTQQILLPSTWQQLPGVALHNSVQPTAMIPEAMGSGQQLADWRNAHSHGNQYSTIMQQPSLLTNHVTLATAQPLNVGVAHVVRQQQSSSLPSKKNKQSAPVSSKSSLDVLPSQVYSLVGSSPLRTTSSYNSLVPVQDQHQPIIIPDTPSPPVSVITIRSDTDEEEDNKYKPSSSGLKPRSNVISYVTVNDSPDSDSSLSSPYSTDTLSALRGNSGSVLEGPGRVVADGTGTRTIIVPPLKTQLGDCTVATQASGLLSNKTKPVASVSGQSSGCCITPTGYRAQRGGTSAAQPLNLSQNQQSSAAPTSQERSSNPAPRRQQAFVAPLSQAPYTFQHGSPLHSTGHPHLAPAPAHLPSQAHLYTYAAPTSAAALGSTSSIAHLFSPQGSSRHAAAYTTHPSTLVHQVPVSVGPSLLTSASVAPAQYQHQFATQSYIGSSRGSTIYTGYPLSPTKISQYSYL
Protocol: as §1

[8] = biological target: IGF-1R (Homo sapiens, UniProt P08069)
Protocol: as §1

[9] = biological target: IKKβ (Homo sapiens, UniProt O14920)
Protocol: as §1

[10] = biological target: IRAK4 (Homo sapiens, UniProt Q9NWZ3)
Protocol: as §1

[11] = biological target: LKB1 (Homo sapiens, UniProt Q15831)
Protocol: as §1

[12] = biological target: MARK2 (Homo sapiens, UniProt Q7KZI7)
MARK2, sequence (Q7KZI7 whole entry): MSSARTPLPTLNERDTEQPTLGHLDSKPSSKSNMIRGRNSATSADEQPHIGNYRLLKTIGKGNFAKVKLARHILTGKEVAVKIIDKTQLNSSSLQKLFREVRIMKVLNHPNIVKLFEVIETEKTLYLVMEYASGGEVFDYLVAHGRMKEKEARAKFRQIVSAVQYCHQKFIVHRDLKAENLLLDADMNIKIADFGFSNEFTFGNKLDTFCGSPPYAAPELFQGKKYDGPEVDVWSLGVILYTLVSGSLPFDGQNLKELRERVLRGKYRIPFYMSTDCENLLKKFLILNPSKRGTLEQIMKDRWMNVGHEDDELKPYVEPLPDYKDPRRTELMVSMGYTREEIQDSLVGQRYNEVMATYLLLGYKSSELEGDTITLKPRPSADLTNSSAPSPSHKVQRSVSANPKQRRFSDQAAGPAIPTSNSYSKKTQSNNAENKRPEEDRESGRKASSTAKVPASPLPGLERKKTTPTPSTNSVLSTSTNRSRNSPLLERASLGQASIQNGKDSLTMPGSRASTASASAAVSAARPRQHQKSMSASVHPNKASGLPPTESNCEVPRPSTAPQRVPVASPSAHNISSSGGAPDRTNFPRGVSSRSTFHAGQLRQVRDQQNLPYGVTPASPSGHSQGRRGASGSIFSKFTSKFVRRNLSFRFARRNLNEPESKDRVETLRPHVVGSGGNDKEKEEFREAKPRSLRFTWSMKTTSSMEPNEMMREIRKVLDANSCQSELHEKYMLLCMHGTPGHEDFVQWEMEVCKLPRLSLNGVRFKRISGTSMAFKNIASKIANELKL
Protocol: as §1

[13] = biological target: MARK3 (Homo sapiens, UniProt P27448)
Protocol: as §1

[14] = biological target: MARK4 (Homo sapiens, UniProt Q96L34)
Protocol: as §1

[15] = biological target: MINK1 (Homo sapiens, UniProt Q8N4C8)
Protocol: as §1

[16] = biological target: MKK1 (Homo sapiens, UniProt Q02750)
MKK1, sequence (Q02750 whole entry): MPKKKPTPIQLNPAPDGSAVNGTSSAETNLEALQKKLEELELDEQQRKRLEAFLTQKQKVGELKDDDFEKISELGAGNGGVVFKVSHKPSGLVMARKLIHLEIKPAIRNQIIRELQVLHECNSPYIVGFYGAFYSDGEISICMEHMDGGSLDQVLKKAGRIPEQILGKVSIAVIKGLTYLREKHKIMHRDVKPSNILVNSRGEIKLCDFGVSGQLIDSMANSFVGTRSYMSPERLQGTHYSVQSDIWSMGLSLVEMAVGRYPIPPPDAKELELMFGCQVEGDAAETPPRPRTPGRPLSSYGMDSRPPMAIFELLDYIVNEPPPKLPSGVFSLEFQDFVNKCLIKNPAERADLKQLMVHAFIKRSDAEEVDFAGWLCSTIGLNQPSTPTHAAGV
Protocol: as §1

[17] = biological target: MLK1 (Homo sapiens, UniProt P80192)
Protocol: as §1

[18] = biological target: MNK2 (Homo sapiens, UniProt Q9HBH9)
Protocol: as §1

[19] = biological target: NEK6 (Homo sapiens, UniProt Q9HC98)
Protocol: as §1

[20] = biological target: NUAK1 (Homo sapiens, UniProt O60285)
NUAK1, sequence (O60285 whole entry): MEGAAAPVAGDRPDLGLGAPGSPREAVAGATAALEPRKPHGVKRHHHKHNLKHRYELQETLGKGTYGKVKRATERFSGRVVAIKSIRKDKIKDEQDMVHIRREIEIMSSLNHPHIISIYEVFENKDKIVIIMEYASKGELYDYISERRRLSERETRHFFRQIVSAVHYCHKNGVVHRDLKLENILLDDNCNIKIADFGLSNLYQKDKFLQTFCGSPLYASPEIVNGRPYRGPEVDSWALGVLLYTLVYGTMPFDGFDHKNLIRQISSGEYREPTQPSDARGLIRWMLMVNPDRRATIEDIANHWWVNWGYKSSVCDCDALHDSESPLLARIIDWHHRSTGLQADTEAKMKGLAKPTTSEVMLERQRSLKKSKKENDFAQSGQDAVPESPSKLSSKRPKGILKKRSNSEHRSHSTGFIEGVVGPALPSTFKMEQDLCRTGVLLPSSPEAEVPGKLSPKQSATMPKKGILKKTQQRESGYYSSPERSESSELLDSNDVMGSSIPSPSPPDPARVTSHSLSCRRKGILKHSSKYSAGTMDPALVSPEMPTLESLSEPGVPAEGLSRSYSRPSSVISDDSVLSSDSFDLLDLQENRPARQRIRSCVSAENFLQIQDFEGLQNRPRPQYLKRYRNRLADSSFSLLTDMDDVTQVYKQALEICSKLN
Protocol: as §1

[21] = biological target: PAK5 (Homo sapiens, UniProt Q9P286)
Protocol: as §1

[22] = biological target: PKCz (Homo sapiens, UniProt Q05513)
Protocol: as §1

[23] = biological target: PLK1 (Homo sapiens, UniProt P53350)
Protocol: as §1

[24] = biological target: PRK2 (Homo sapiens, UniProt Q16513)
PRK2, sequence (Q16513 whole entry): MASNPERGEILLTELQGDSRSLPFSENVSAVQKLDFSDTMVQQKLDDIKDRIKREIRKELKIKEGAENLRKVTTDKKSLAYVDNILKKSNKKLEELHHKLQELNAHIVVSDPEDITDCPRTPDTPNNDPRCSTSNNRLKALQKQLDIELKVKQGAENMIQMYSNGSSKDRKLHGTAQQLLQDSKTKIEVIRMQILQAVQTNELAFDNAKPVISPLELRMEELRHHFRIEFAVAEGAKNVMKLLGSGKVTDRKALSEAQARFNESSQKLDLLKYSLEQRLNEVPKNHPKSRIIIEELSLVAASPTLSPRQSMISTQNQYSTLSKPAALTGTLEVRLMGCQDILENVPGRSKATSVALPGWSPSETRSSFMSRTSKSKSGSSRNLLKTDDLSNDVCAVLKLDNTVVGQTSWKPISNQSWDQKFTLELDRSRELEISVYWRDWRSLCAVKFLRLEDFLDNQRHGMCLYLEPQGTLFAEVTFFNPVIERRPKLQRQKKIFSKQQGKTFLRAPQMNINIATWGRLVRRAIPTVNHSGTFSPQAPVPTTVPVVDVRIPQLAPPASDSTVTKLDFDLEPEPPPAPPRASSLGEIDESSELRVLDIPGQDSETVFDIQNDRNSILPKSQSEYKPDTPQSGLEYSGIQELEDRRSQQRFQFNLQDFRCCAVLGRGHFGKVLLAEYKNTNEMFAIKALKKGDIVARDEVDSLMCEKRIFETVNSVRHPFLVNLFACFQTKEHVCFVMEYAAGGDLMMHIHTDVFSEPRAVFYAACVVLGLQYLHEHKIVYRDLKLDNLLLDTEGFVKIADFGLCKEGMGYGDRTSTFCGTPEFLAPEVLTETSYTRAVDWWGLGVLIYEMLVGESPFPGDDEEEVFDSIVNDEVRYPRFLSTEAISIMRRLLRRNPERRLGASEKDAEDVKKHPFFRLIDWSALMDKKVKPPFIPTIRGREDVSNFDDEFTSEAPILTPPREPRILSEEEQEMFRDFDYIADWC
Protocol: as §1

[25] = biological target: S6K1 (Homo sapiens, UniProt P23443)
Protocol: as §1

[26] = biological target: p38α MAPK (Homo sapiens, UniProt Q16539)
Protocol: as §1

[27] = biological target: p38β MAPK (Homo sapiens, UniProt Q15759)
Protocol: as §1

Aurora A, sequence (O14965 whole entry): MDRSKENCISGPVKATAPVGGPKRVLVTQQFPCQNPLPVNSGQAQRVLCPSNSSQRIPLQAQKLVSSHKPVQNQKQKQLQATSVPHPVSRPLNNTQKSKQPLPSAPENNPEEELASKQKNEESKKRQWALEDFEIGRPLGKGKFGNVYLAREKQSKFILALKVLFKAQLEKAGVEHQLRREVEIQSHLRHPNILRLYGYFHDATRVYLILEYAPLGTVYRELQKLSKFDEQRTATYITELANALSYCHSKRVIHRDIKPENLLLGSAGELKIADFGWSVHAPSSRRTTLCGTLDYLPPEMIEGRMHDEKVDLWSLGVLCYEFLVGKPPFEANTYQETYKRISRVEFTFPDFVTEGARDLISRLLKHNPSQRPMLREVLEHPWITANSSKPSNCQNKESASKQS

Question: With `Nc1ccc2c(NC3CC3)nc(-c3ccccc3)nc2c1` [1b, N^4-Cyclopropyl-2-phenyl-4,7-quinazolinediamine] as the compound, how does the remaining activity at 10 µM [1] read?
Answer: The remaining activity at 10 µM was 104%.

Question: What about the remaining activity at 10 µM [2] of the same compound?
Answer: Its remaining activity at 10 µM is 95%.

Question: And the remaining activity at 10 µM [3]?
Answer: The remaining activity at 10 µM was 78%.

Question: And the remaining activity at 10 µM [4]?
Answer: Its remaining activity at 10 µM is 86%.

Question: What about the remaining activity at 10 µM [5] of the same compound?
Answer: Its remaining activity at 10 µM is 97%.

Question: What about the remaining activity at 10 µM [6] of the same compound?
Answer: The remaining activity at 10 µM was 71%.

Question: And the remaining activity at 10 µM [7]?
Answer: The remaining activity at 10 µM was 87%.

Question: And the remaining activity at 10 µM [8]?
Answer: The remaining activity at 10 µM was 81%.

Question: What about the remaining activity at 10 µM [9] of the same compound?
Answer: The remaining activity at 10 µM was 97%.

Question: And the remaining activity at 10 µM [10]?
Answer: The remaining activity at 10 µM was 97%.

Question: What about the remaining activity at 10 µM [11] of the same compound?
Answer: Its remaining activity at 10 µM is 98%.

Question: And the remaining activity at 10 µM [12]?
Answer: The remaining activity at 10 µM was 100%.

Question: What about the remaining activity at 10 µM [13] of the same compound?
Answer: Its remaining activity at 10 µM is 99%.

Question: What about the remaining activity at 10 µM [14] of the same compound?
Answer: The remaining activity at 10 µM was 93%.

Question: And the remaining activity at 10 µM [15]?
Answer: The remaining activity at 10 µM was 69%.

Question: And the remaining activity at 10 µM [16]?
Answer: Its remaining activity at 10 µM is 75%.

Question: And the remaining activity at 10 µM [17]?
Answer: The remaining activity at 10 µM was 92%.

Question: What about the remaining activity at 10 µM [18] of the same compound?
Answer: Its remaining activity at 10 µM is 67%.

Question: What about the remaining activity at 10 µM [19] of the same compound?
Answer: Its remaining activity at 10 µM is 105%.

Question: And the remaining activity at 10 µM [20]?
Answer: Its remaining activity at 10 µM is 90%.

Question: And the remaining activity at 10 µM [21]?
Answer: Its remaining activity at 10 µM is 88%.

Question: What about the remaining activity at 10 µM [22] of the same compound?
Answer: The remaining activity at 10 µM was 96%.

Question: And the remaining activity at 10 µM [23]?
Answer: The remaining activity at 10 µM was 87%.

Question: What about the remaining activity at 10 µM [24] of the same compound?
Answer: Its remaining activity at 10 µM is 103%.

Question: And the remaining activity at 10 µM [25]?
Answer: Its remaining activity at 10 µM is 96%.

Question: What about the remaining activity at 10 µM [26] of the same compound?
Answer: Its remaining activity at 10 µM is 88%.

Question: And the remaining activity at 10 µM [27]?
Answer: Its remaining activity at 10 µM is 89%.
